Assay: cysteine challenge experiment (stability of Re and Tc carborane complexes)
Format: physicochemical
Details: thousand fold excess of cysteine, 1:1 (v/v) phosphate buffer (pH=7.4)-ethanol, 37° C., over 24 hours
Method: The stability of the Re and Tc carborane complexes were evaluated using a cysteine challenge experiment.^21 Compound 1, for example, was incubated with a thousand fold excess of cysteine in a 1:1 (v/v) phosphate buffer (pH=7.4)-ethanol mixture at 37° C. over 24 hours.

stability (decomposition) in cysteine challenge by HPLC, FTIR and electrospray mass spectrometry: no signs of decomposition
Substance: [NEt4][Re(CO)3(η^5-7,8-C2B9H11)] [Compound 1]

— patent US6890513B2, “Metal-carborane complexes for radioimaging and radiotherapy and methods for their preparation” (McMaster University, priority 2001, dated 2005)
